Measured values taken from article PMC9719519, “Non-classical ferroptosis inhibition by a small molecule targeting PHB2” (Nature Communications, 2022).

What was measured:
Experiment in all cases: biochemical
Design in all cases: Eurofins recombinant human kinase profiling, remaining kinase activity as % of control, 10 uM ATP
Settings in all cases: ATP 10 uM; read-out: %Ctrl@10 μM
[1] = target: EGFR(L861Q)(h) (Homo sapiens, UniProt P00533, L861Q)
Summary of the method: (§1)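 Activity measured in a commercial panel of 401 recombinant human protein kinases run as a kinase profiling service.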

[2] = target: CDK9/cyclin T1(h) (Homo sapiens, UniProt P50750)
Summary of the method: as §1

[3] = target: CLK3(h) (Homo sapiens, UniProt P49761)
Summary of the method: as §1

[4] = target: TSSK2(h) (Homo sapiens, UniProt Q96PF2)
Summary of the method: as §1

[5] = target: T1, LKB1(h) (Homo sapiens, UniProt Q15831)
T1 construct: gene STK11
Summary of the method: as §1

[6] = target: Flt3(D835Y)(h) (Homo sapiens, UniProt P36888, D835Y)
Summary of the method: as §1

[7] = target: CDKL1(h) (Homo sapiens, UniProt Q00532)
Summary of the method: as §1

[8] = target: T2, IKKβ(h) (Homo sapiens, UniProt O14920)
T2 construct: gene IKBKB
Summary of the method: as §1

[9] = target: Src(T341M)(h) (Homo sapiens, UniProt P12931, T341M)
Summary of the method: as §1

[10] = target: SRPK1(h) (Homo sapiens, UniProt Q96SB4)
Summary of the method: as §1

[11] = target: T3, CK1ε(h) (Homo sapiens, UniProt P49674)
T3 construct: gene CSNK1E
Summary of the method: as §1

[12] = target: T4, TrkC(h) (Homo sapiens, UniProt Q16288)
T4 construct: gene NTRK3
Summary of the method: as §1

[13] = target: CDK14/cyclinY(h) (Homo sapiens, UniProt O94921)
Summary of the method: as §1

[14] = target: T5, IRE1(h) (Homo sapiens, UniProt O75460)
T5 construct: gene ERN1
Summary of the method: as §1

[15] = target: T6, PRK1(h) (Homo sapiens, UniProt Q16512)
T6 construct: gene PKN1
Summary of the method: as §1

[16] = target: Syk(h) (Homo sapiens, UniProt P43405)
Summary of the method: as §1

[17] = target: T7, A-Raf(h) (Homo sapiens, UniProt P10398)
T7 construct: gene ARAF
Summary of the method: as §1

[18] = target: T8, JNK3(h) (Homo sapiens, UniProt P53779)
T8 construct: gene MAPK10
Summary of the method: as §1

[19] = target: T9, Fms(h) (Homo sapiens, UniProt P07333)
T9 construct: gene CSF1R
Summary of the method: as §1

[20] = target: T10, PKD3(h) (Homo sapiens, UniProt O94806)
T10 construct: gene PRKD3
Summary of the method: as §1

[21] = target: T11, CaMKIV(h) (Homo sapiens, UniProt Q16566)
T11 construct: gene CAMK4
Summary of the method: as §1

[22] = target: RIPK2(h) (Homo sapiens, UniProt O43353)
Summary of the method: as §1

[23] = target: TTK(h) (Homo sapiens, UniProt P33981)
Summary of the method: as §1

T9 sequence (P07333 whole entry): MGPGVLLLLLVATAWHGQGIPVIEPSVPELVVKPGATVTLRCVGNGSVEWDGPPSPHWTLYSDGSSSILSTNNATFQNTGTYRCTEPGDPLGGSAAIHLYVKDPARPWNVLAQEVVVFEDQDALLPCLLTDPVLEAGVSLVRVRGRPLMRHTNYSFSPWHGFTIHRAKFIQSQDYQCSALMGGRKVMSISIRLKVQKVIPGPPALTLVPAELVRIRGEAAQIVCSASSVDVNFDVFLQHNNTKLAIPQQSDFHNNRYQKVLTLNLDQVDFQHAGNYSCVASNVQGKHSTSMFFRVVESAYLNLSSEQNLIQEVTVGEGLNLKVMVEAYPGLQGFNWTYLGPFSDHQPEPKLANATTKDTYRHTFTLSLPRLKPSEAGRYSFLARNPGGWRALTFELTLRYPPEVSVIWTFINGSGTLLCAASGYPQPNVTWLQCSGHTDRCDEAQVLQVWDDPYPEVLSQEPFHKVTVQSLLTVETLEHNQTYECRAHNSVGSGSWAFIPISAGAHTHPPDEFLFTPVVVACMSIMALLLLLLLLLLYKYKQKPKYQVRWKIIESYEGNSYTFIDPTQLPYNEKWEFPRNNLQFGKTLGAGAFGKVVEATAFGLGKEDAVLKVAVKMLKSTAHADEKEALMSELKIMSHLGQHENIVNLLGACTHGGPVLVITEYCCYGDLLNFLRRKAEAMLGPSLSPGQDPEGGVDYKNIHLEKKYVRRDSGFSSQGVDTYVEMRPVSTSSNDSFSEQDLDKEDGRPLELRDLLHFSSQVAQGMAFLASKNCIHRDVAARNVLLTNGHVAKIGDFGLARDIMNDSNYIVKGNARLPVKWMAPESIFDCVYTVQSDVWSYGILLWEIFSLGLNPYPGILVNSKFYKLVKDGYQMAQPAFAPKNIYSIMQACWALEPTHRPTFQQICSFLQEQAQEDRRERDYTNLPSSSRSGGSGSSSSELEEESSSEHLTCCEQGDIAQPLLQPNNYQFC
T1 sequence (Q15831 whole entry): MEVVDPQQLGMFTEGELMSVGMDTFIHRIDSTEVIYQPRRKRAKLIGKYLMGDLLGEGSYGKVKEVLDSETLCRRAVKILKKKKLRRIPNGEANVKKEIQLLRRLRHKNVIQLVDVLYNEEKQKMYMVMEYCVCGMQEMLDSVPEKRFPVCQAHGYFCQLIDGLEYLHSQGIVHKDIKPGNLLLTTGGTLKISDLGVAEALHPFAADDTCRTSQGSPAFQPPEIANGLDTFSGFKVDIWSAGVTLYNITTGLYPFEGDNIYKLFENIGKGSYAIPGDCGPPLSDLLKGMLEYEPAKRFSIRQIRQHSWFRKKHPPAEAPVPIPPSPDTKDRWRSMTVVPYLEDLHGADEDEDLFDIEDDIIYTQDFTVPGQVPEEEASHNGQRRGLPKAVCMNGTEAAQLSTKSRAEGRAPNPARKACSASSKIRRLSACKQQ
T1 sequence (Q7RTN6 whole entry partner): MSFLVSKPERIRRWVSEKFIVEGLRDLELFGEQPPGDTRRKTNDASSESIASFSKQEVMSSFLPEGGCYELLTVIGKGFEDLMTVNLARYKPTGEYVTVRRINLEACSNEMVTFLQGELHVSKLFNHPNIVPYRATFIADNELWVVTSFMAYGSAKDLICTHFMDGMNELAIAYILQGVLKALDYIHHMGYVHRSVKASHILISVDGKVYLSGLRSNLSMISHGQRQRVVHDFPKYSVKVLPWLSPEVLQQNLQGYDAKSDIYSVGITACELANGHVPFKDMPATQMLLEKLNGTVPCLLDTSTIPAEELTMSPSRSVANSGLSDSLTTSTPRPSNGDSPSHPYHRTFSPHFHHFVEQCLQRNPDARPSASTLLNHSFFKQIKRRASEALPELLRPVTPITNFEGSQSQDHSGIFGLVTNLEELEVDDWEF
T1 sequence (Q9Y376 whole entry partner): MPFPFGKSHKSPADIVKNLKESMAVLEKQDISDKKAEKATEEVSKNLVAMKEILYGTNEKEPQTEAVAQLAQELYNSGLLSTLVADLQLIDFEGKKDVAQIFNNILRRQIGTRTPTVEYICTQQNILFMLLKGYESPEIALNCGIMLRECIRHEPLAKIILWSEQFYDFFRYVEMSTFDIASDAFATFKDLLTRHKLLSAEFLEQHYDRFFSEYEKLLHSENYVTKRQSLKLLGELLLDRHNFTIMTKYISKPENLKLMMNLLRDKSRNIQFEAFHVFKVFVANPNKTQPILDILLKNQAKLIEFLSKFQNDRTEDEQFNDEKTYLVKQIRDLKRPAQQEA
EGFR(L861Q)(h), sequence (P00533 whole entry L861Q): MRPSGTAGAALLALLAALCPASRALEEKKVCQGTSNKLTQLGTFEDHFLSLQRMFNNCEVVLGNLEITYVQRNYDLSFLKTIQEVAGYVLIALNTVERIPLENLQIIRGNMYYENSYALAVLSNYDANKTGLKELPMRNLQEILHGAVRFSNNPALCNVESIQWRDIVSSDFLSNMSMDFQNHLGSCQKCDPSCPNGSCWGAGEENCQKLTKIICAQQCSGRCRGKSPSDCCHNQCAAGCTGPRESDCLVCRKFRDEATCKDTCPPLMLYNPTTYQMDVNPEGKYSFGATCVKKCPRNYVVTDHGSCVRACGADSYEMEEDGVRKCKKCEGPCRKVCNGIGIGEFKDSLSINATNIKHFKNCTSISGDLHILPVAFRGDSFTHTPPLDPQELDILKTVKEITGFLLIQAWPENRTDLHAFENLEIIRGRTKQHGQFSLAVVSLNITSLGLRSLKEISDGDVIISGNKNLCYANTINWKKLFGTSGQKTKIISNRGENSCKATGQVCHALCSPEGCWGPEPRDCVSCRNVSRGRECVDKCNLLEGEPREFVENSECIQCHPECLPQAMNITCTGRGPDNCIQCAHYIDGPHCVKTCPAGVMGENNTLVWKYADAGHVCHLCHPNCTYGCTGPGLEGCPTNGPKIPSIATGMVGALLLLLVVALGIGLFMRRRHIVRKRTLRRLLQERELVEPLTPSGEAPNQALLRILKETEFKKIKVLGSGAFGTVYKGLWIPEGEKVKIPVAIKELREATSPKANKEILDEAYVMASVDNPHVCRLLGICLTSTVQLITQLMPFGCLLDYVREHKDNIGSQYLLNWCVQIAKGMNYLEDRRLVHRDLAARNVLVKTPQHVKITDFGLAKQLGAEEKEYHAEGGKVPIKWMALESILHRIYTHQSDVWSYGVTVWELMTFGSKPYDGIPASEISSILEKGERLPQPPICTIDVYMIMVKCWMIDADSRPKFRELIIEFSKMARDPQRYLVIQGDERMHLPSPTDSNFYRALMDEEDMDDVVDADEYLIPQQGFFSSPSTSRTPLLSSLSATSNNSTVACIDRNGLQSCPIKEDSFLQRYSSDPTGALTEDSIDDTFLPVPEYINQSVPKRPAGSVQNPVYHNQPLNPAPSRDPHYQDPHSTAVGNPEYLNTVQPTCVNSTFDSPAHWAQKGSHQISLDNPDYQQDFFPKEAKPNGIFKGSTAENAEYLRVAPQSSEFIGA
RIPK2(h), sequence (O43353 whole entry): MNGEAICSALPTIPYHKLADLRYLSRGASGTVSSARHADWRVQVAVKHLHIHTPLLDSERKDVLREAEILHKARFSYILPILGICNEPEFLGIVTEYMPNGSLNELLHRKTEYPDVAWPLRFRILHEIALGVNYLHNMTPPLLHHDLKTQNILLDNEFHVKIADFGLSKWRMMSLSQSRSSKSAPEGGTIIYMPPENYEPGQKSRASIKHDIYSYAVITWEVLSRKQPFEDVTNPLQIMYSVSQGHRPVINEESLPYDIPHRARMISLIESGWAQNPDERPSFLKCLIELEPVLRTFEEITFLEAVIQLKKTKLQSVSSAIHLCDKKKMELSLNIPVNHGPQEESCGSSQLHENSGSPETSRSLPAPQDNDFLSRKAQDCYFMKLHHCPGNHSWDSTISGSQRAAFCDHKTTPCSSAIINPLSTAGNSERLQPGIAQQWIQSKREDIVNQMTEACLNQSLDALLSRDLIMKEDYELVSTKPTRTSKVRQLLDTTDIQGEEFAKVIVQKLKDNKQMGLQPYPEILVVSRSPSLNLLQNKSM
Src(T341M)(h), sequence (P12931 whole entry T341M): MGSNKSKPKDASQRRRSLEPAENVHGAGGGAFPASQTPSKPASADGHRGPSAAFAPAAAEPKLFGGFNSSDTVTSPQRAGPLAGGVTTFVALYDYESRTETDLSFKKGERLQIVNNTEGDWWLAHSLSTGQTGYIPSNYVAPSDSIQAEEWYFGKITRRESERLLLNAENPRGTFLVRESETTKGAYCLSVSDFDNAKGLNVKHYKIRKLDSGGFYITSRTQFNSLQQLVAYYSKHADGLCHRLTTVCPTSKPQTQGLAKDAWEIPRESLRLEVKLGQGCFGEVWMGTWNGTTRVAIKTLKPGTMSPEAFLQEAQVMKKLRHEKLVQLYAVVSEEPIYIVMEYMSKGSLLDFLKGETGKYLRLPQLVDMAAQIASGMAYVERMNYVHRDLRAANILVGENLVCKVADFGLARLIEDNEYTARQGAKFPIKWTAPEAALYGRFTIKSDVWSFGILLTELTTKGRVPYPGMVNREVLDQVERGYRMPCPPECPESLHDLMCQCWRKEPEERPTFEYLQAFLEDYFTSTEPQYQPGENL
T8 sequence (P53779 whole entry): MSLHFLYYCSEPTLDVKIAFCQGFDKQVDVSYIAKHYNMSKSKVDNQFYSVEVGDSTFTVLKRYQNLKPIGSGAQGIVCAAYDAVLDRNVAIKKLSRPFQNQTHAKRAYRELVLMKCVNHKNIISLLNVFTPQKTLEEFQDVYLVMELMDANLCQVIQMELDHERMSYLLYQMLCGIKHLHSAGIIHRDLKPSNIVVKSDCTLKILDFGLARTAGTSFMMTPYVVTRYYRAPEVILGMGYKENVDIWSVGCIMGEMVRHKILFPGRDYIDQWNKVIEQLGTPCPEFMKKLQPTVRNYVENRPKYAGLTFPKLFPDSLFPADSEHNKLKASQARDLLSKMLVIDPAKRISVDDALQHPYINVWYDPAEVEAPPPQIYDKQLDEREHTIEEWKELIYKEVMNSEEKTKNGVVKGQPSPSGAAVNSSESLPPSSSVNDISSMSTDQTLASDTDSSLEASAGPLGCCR

C1=C(c2nc(-c3cnn(C4CCNCC4)c3)cn3cc(-c4ccccc4)nc23)CCOC1 [YL-939]
remaining activity at 10 µM [1]: 61% | remaining activity at 10 µM [2]: 119% | remaining activity at 10 µM [3]: 96% | remaining activity at 10 µM [4]: 83% | remaining activity at 10 µM [5]: 87% | remaining activity at 10 µM [6]: 95% | remaining activity at 10 µM [7]: 96% | remaining activity at 10 µM [8]: 87% | remaining activity at 10 µM [9]: 100% | remaining activity at 10 µM [10]: 107% | remaining activity at 10 µM [11]: 74% | remaining activity at 10 µM [12]: 64% | remaining activity at 10 µM [13]: 111% | remaining activity at 10 µM [14]: 94% | remaining activity at 10 µM [15]: 96% | remaining activity at 10 µM [16]: 62% | remaining activity at 10 µM [17]: 83% | remaining activity at 10 µM [18]: 65% | remaining activity at 10 µM [19]: 122% | remaining activity at 10 µM [20]: 87% | remaining activity at 10 µM [21]: 77% | remaining activity at 10 µM [22]: 71% | remaining activity at 10 µM [23]: 102%
